In this series the target is UBE2G1. Briefly: reporter assay of Huesken 2005. The settings on record: siRNA. Background: A reporter such as luciferase makes a cellular process visible.

Oligonucleotides are written 5' to 3', each unit as a sugar letter and its base; * is a phosphorothioate linkage, no mark a phosphodiester; rarer units and linkages stand in square brackets, end groups in braces. Plain capitals give the bases only. d = 2'-deoxy (DNA); r = 2'-OH (RNA)
Further: test concentration or dose not given here.

“sense rUrCrCrArCrArCrUrGrUrGrGrArArArCrCrArUdTdT / antisense rArUrGrGrUrUrUrCrCrArCrArGrUrGrUrGrGrAdTdA”: the normalised inhibition (eCFP-eYFP dual reporter) was 85.3%.

Turning to “sense rArArUrGrUrUrGrArUrGrCrUrGrCrGrArArArGdTdT / antisense rCrUrUrUrCrGrCrArGrCrArUrCrArArCrArUrUdAdG”, the normalised inhibition (eCFP-eYFP dual reporter) turned out to be 93.5%. For the substance “sense rUrGrCrUrGrCrGrArArArGrArArUrGrGrArGrGdTdT / antisense rCrCrUrCrCrArUrUrCrUrUrUrCrGrCrArGrCrAdTdC”, the normalised inhibition (eCFP-eYFP dual reporter) amounted to 34.4%. On to “sense rArUrCrUrCrUrArCrCrGrArUrGrGrGrArArGrUdTdT / antisense rArCrUrUrCrCrCrArUrCrGrGrUrArGrArGrArUdCdA”, for which the normalised inhibition (eCFP-eYFP dual reporter) came out at 67.7%. Regarding “sense rArUrGrUrUrGrArUrGrCrUrGrCrGrArArArGrAdTdT / antisense rUrCrUrUrUrCrGrCrArGrCrArUrCrArArCrArUdTdA”, the normalised inhibition (eCFP-eYFP dual reporter) was found to be 104%. As for “sense rGrArUrArCrArCrUrUrUrArUrGrArArGrGrUrGdTdT / antisense rCrArCrCrUrUrCrArUrArArArGrUrGrUrArUrCdTdG”, the normalised inhibition (eCFP-eYFP dual reporter) stood at 66%. Regarding “sense rArArUrCrUrGrGrCrArCrCrCrArArArUrGrUrUdTdT / antisense rArArCrArUrUrUrGrGrGrUrGrCrCrArGrArUrUdTdC”, the normalised inhibition (eCFP-eYFP dual reporter) worked out at 73.4%. With “sense rArGrArUrArCrArCrUrUrUrArUrGrArArGrGrUdTdT / antisense rArCrCrUrUrCrArUrArArArGrUrGrUrArUrCrUdGdG” the figure was 78.7%; with “sense rArArGrCrCrArGrArGrGrArArCrGrCrUrGrGrCdTdT / antisense rGrCrCrArGrCrGrUrUrCrCrUrCrUrGrGrCrUrUdTdT”, 35.9%; with “sense rUrUrArGrUrGrUrCrArUrUrUrCrUrArUrGrCrUdTdT / antisense rArGrCrArUrArGrArArArUrGrArCrArCrUrArAdTdC”, 54%. Consider “sense rGrGrArArGrUrCrCrUrUrArUrUrArUrUrGrGrCdTdT / antisense rGrCrCrArArUrArArUrArArGrGrArCrUrUrCrCdCdA”, for which the normalised inhibition (eCFP-eYFP dual reporter) was 71%.

In the case of “sense rArArUrGrGrArGrGrGrArArGrArUrArGrArArAdTdT / antisense rUrUrUrCrUrArUrCrUrUrCrCrCrUrCrCrArUrUdCdT”, the normalised inhibition (eCFP-eYFP dual reporter) came out at 85.9%.

Take “sense rArGrCrCrUrGrGrGrGrArArGrArUrArArGrUrAdTdT / antisense rUrArCrUrUrArUrCrUrUrCrCrCrCrArGrGrCrUdCdA”: the normalised inhibition (eCFP-eYFP dual reporter) came to 78.6%. With “sense rArUrCrCrArGrUrGrGrArArGrGrCrUrUrUrUrCdTdT / antisense rGrArArArArGrCrCrUrUrCrCrArCrUrGrGrArUdTdT”, the normalised inhibition (eCFP-eYFP dual reporter) worked out at 65.4%. Regarding “sense rUrCrArUrGrArGrCrCrUrGrGrGrGrArArGrArUdTdT / antisense rArUrCrUrUrCrCrCrCrArGrGrCrUrCrArUrGrAdAdG”, the normalised inhibition (eCFP-eYFP dual reporter) stood at 76.4%. With “sense rCrUrArArUrGrGrArGrArCrUrCrArCrCrUrGrCdTdT / antisense rGrCrArGrGrUrGrArGrUrCrUrCrCrArUrUrArGdGdG” the figure was 71.9%; with “sense rArUrArArGrUrArUrGrGrUrUrArUrGrArArArAdTdT / antisense rUrUrUrUrCrArUrArArCrCrArUrArCrUrUrArUdCdT”, 69.3%; with “sense rUrArCrCrGrArUrGrGrGrArArGrUrCrCrUrUrAdTdT / antisense rUrArArGrGrArCrUrUrCrCrCrArUrCrGrGrUrAdGdA”, 93.1%. For “sense rArGrCrCrArGrArGrGrArArCrGrCrUrGrGrCrUdTdT / antisense rArGrCrCrArGrCrGrUrUrCrCrUrCrUrGrGrCrUdTdT”, the normalised inhibition (eCFP-eYFP dual reporter) stood at 37.8%.

Source of the values: the OligoGym collection.
